Values joined by “and” are separate entries in the source; they are usually repeats but may differ in a detail not shown here. Identical values can stand only once. Like-named read-outs stand apart in the source and are kept apart here.
Columns and labels:
[1] = Membrane affinity logMA (MA-Transil); assay type: physicochemical; details: buffer pH 7.4
Description: Assays for Determining Membrane Affinity logMA and Protein Binding to Human Serum Albumin (HSA):
Determination of membrane affinity and protein binding to human serum albumin (HSA) was carried out via Transil technology (literature: A. Loidl-Stahlhofen, A. Eckert, T. Hartmann, M. Schöttner J Pharm Sci 90, 599-606 (2001)). Transil® (commercially available from Sovicell in Leipzig, Germany) are glass beads (diameter 10-12 μm) coated with a double-layer membrane of phosphatidylcholine (MA-Transil) or covalently attached human serum albumin (HSA-Transil).
To determine the logMA and the protein binding constant to HSA, the commercially available TRANSIL Intestinal Absorption & HSA Binding Combined Assay Kit was used. This is a 96-well microtitre plate (96 well-MTP) which is filled with Transil and can be used to determine MA-Transil and HSA-Transil binding of in each case eight active compounds. For each active compound, the Transil plate provides a row of 12 wells. Two wells serve as reference and are only filled with buffer pH 7.4. Five further wells contain MA-Transil in various increasing concentrations, the five remaining wells contain HSA-Transil in various increasing concentrations.
To determine binding of an active compound to Transil, the supernatant of the wells with Transil was quantified against the reference solution without Transil via HPLC-MS coupling (HPLC-MS=high performance liquid chromatography/mass spectrometry).
This is how the individual steps of the assay were carried out:
From the internal substance store, the active compounds were delivered in a 96-well MTP. This plate is referred to as mother plate. Each well contained 30 μl of a 10 mmol solution of active compound in DMSO (dimethyl sulphoxide). Two wells at the start (well A1) and at the end of the plate (well H12) were filled with 30 μl of a 10 mmol solution of warfarin in DMSO. Warfarin, whose membrane affinity and binding to HSA is known, serves to check whether the measurement is correct. The mother plate was used to prepare a daughter plate with a 1 to 4000 dilution with a mixture of buffer pH 7.4 and DMSO in a ratio of 1+1. The active compound concentration of each well was 2.5 μmol/liter, the volume of each well was 400 μl.
Using a Hamilton pipetting robot Microlab STAR, the 96 active compounds from the daughter plate were divided onto 12 Transil plates in total. From each well of the daughter plate, 12 times 20 μl were removed. The concentration of each well of the Transil plate was 0.25 μmol/liter, which corresponds to a dilution of 1 to 10. The DMSO content was 5%.
The filled Transil plates were each resuspended for two minutes, then allowed to stand at room temperature for at least two minutes and then centrifuged at 600 rotations per minute for five minutes. The pipetting robot was then used to remove 20 μl of supernatant from each well of the Transil plate and to transfer these to a separate microtitre plate. Here, the supernatants of in each case four Transil plates were pooled in a microtitre plate, so that at the end there were three pooled microtitre plates with in each case 80 μl of solution and an active compound concentration of 62.5 nM per well.
Prior to quantification of the active compounds by HPLC-MS, an optimization has to be carried out for each active compound where by way of a single injection daughter ion and optimum electrical voltages are determined. To this end, the pipetting robot prepared a dilution of the mother plate of 1 to 10 000 000 in an acetonitrile/water mixture in a ratio of 8+2 in a separate microtitre plate. This microtitre plate was measured by HPLC-MS using the software Discovery Quant Optimize from AB Sciex. The three pooled microtitre plates were measured by HPLC-MS using the software Discovery Quant Analyze from AB Sciex. […]

[2] = Maximum tolerated dose (MTD) in female nude mice; assay type: in vivo, mouse; details: for Deaths: 21 days, 1 administration per day; for MTD at 21 days: female, NMRI-nude (nu/nu), mouse, in vivo, 21-day treatment, administration once per day, oral
Description: To this end, initially the maximum tolerable dose (MTD) was determined using the following protocol:
The MTD was defined as the highest dose which could be administered without any animal dying during the treatment phase, and without any body weight loss of more than 10% compared to the initial weight.
(§1) Administration route: oral
• (Solutol HS15: polyoxyethylene ester of 12-hydroxystearic acid) Administration volume: 10 ml/kg: Protocol: see Table 7
The treatment phase was followed by an observation phase of 21 days.

[3] = system: human PC-3 cells; details: for T/C: final tumour weight
Description: Xenograft models in immunosuppressed mice were used to determine the antitumour activity in living organisms.
Use was made primarily of a prostate carcinoma model with hormone-independent human PC-3 cells in male nude mice (NMRI-nude (nu/nu) mice, Taconic M&B A/S). To this end, 3 million tumour cells (suspended in medium+Matrigel 1:1, final 0.1 ml) were injected subcutaneously into the side of each animal. When the tumours extended to an area of 20-30 mm^2, the mice were randomized into therapy groups and therapy was initiated. […] At this point in time, the experiment was terminated in all groups and the prepared tumours were weighed.
The T/C value was calculated as primary success parameter using the effect on the final tumour weight: mean tumour weight in the treatment group divided by mean of the tumour weight in the vehicle group.
as §1
Vehicle: PEG400/ethanol/Solutol HS 15 (70/5/25, v/v/v)
Administration volume: 10 ml/kg
Number of mice: see Table 8

[4] = Effective AUC from plasma concentration time profile in the PC3 tumour model; assay type: in vivo, mouse
Description: (§2) The human pharmacokinetic (PK) parameters (Table 9) were predicted based on the in vivo PK parameters obtained for rats (single species scaling), taking into account the interspecies differences in the free fraction (fu) in the plasma. The effective AUC (area under curve) was determined based on the measured plasma concentration time profile for in vivo efficacy in the PC3 tumour model of the mouse (nu/nu mouse).

[5] = Prediction of human pharmacokinetic parameters and human therapeutic dosage (single species scaling from rat); details: for pred. CL (human): predicted (fu-corrected) from rat PK
Description: as §2, with “mouse). The therapeutic human dosage was determined using the predicted human clearance (CL), assuming 100% bioavailability (F=1) and using the effective AUC in the animal model according to the formula below: […]” for “mouse).”

[6] = biological target: human ACC2 (Homo sapiens (Human), UniProt O00763); experiment: Human ACC2 enzyme assay (ADP-Glo); details: read-out: ACC 2 IC50, individual measurement (measurement no./preparation no. in table)
Sequence of human ACC2 (O00763 27-2458 limits assumed): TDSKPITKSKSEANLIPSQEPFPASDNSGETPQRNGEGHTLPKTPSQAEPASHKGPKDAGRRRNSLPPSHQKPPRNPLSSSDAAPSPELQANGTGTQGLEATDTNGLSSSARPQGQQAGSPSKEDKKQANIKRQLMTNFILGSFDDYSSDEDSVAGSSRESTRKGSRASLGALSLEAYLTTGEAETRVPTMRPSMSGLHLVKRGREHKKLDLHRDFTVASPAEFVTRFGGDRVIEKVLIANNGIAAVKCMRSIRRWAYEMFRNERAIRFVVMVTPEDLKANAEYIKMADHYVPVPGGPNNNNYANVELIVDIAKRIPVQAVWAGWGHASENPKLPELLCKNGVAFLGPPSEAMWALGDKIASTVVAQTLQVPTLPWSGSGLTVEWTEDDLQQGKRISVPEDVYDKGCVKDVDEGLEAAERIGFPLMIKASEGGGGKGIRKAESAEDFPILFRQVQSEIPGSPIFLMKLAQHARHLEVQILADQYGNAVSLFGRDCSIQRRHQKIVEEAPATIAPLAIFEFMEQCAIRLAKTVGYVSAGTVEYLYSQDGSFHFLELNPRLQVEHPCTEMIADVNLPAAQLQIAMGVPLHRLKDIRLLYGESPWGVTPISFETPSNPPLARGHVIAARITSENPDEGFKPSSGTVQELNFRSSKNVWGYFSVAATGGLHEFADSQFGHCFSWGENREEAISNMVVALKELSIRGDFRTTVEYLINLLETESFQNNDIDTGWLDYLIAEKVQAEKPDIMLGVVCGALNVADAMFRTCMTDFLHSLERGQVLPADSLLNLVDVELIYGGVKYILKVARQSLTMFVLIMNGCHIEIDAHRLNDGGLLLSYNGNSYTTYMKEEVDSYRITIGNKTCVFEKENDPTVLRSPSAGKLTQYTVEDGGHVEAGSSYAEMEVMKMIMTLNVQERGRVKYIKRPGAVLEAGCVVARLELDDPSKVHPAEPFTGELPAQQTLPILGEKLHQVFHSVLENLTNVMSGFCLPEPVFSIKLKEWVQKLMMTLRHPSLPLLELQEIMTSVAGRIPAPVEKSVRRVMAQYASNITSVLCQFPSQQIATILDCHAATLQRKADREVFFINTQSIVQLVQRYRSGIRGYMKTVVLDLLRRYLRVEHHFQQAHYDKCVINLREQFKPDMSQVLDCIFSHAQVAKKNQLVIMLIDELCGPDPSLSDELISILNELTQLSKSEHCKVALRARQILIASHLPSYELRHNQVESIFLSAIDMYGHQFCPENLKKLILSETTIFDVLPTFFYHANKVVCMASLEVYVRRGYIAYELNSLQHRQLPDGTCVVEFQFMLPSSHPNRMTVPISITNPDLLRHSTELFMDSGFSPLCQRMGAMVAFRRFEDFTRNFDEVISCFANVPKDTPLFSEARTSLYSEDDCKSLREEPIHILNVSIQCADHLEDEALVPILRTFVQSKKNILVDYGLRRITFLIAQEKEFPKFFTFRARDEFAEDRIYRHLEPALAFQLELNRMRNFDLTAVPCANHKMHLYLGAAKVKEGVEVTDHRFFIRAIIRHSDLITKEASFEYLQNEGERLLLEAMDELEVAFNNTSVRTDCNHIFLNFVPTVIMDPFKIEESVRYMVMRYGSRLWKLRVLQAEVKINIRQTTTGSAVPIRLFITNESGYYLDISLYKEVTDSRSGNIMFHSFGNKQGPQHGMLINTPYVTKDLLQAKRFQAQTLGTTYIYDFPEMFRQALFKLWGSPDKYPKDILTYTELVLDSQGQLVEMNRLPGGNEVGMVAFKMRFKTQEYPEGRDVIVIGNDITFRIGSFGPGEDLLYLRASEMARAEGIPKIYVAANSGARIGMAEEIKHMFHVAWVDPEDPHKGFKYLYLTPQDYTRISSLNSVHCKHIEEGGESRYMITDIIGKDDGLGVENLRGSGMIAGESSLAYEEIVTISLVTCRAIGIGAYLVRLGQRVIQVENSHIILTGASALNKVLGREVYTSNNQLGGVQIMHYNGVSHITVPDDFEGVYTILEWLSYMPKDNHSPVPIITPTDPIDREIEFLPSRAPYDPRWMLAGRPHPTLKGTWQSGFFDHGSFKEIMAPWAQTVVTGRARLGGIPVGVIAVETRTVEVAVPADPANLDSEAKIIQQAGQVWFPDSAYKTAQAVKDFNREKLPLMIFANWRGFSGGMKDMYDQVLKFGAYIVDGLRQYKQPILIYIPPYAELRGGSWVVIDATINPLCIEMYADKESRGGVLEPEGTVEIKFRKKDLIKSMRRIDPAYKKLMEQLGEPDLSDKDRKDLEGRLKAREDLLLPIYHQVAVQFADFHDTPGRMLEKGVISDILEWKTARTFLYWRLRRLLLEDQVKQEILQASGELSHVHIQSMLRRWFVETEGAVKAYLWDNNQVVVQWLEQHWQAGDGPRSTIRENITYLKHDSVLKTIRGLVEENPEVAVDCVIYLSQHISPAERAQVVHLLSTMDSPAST

[7] = 100 mg/kg oral, 14 days, 1 administration per day
[8] = 100 mg/kg oral, 14 days, 2 administrations per day
[9] = 40 mg/kg oral, 20 days, 1 administration per day
[10] = 80 mg/kg oral, 14 days, 2 administrations per day
[11] = 80 mg/kg oral, 20 days, 1 administration per day

For CO[C@]1(C)CC[C@]2(CC1)NC(=O)C(c1cc(-c3ccc(Cl)cc3)ccc1C)=C2O [Example V.1-a, (5r,8r)-3-(4′-Chloro-4-methylbiphenyl-3-yl)-4-hydroxy-8-methoxy-8-methyl-1-azaspiro[4.5]dec-3-en-2-one], the logMA [1] was 1.4, the Deaths ([2]; 25 mg/kg oral) was 0 of 4 and the Deaths ([2]; 50 mg/kg oral) was 0 of 4. For the same compound, the Deaths ([2]; 100 mg/kg oral) was 0 of 4, the MTD at 21 days [2] was greater than 100 mg/kg and the Deaths [3, 7] was 0 of 9. The T/C [3, 7] was 0.30, the Deaths [3, 8] was 2 of 9 and the T/C [3, 8] was 0.15. For the same compound, the “tolerability (good: body weight change <=minus 10% and 100% survival)” value ([3]; 100 mg/kg, administration 2 times per day) was “no good tolerability”, the “tolerability (good: body weight change <=minus 10% and 100% survival)” value ([3]; 100 mg/kg, administration once per day) was “good tolerability” and the “ther. AUC (mouse)” value ([4]; dosage (mouse) 100 mg/kg 1 × per day) was 984 µg·h/mL. The “ther. AUC (mouse)” value ([4]; dosage (mouse) 100 mg/kg 2 × per day) was 1495 µg·h/mL, the “calc. AUC (human)” value ([5]; from mouse dosage 100 mg/kg 1 × per day) was 6494 µg·h/mL and the “calc. AUC (human)” value ([5]; from mouse dosage 100 mg/kg 2 × per day) was 9867 µg·h/mL. For the same compound, the “pred. CL (human)” value [5] was 3 mL/h/kg, the IC50 [6] was 3.13 µM and 3.93 µM and 4.54 µM and 2.53 µM and 2.33 µM and 2.51 µM and 3.36 µM and 2.75 µM and 2.03 µM and 2.86 µM and 3.32 µM and 5.14 µM and 5.2 µM and the IC50 ([6]; listed as V.3-a) was 3.13 µM and 3.93 µM and 4.54 µM and 2.53 µM and 2.33 µM and 2.51 µM and 3.36 µM and 2.75 µM and 2.03 µM and 2.86 µM and 3.32 µM and 5.14 µM and 5.2 µM.
For CO[C@]1(C)CC[C@]2(CC1)NC(=O)C(c1cc(-c3ccc(Cl)c(F)c3)ccc1C)=C2O [Example V.2-a, (5r,8r)-3-(4′-Chloro-3′-fluoro-4-methylbiphenyl-3-yl)-4-hydroxy-8-methoxy-8-methyl-1-azaspiro[4.5]dec-3-en-2-one], the logMA [1] was 1.67, the Deaths ([2]; 10 mg/kg oral) was 0 of 4 and the Deaths ([2]; 20 mg/kg oral) was 0 of 4. For the same compound, the Deaths ([2]; 40 mg/kg oral) was 0 of 4, the Deaths ([2]; 80 mg/kg oral) was 0 of 4 and the MTD at 21 days [2] was greater than 80 mg/kg. The Deaths [3, 9] was 0 of 9, the T/C [3, 9] was 0.71 and the Deaths [3, 10] was 1 of 9. For the same compound, the T/C [3, 10] was 0.27, the Deaths [3, 11] was 0 of 9 and the T/C [3, 11] was 0.44. For the same compound, the “tolerability (good: body weight change <=minus 10% and 100% survival)” value ([3]; 80 mg/kg, administration 2 times per day) was “no good tolerability”, the “tolerability (good: body weight change <=minus 10% and 100% survival)” value ([3]; 80 mg/kg, administration once per day) was “good tolerability” and the “ther. AUC (mouse)” value ([4]; dosage (mouse) 80 mg/kg 1 × per day) was 544 µg·h/mL. For the same compound, the “ther. AUC (mouse)” value ([4]; dosage (mouse) 80 mg/kg 2 × per day) was 672 µg·h/mL, the “calc. AUC (human)” value ([5]; from mouse dosage 80 mg/kg 1 × per day) was 3737 µg·h/mL and the “calc. AUC (human)” value ([5]; from mouse dosage 80 mg/kg 2 × per day) was 4702 µg·h/mL. For the same compound, the “pred. CL (human)” value [5] was 6 mL/h/kg, the IC50 [6] was 9.56 µM and 9.2 µM and 4.99 µM and 5.8 µM and 8.63 µM and 7.81 µM and 8.81 µM and 3.99 µM and 2.14 µM and 2.9 µM and the IC50 ([6]; listed as V.4-a) was 9.56 µM and 9.2 µM and 4.99 µM and 5.8 µM and 8.63 µM and 7.81 µM and 8.81 µM and 3.99 µM and 2.14 µM and 2.9 µM.

Source: patent publication US9278925B2, “Substituted 3-(biphenyl-3-yl)-4-hydroxy-8-methoxy-1-azaspiro[4.5]dec-3-en-2-one” (BAYER INTELLECTUAL PROPERTY GMBH, priority 2011, dated 2016)
